Assay results as given in patent US20230416239A1, “COMPOUNDS AND METHODS FOR TREATING A CYTOKINE-MEDIATED DISEASE” (CONSERVATOIRE NATIONAL DES ARTS ET MÉTIERS, priority 2020, published 2023).

Columns and labels:
[1] = molecular target: IL-13 (Homo sapiens, UniProt P35225); experiment: Immunoassay binding test, IL-13; conditions: for IC50: IL-13 400 ng/ml, receptor 100 ng/ml, read-out: BINDING IL13 IC50
Method in brief: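 Receptor-coated plates; compounds (100 to 0.78 μM final) preincubated 2 h at 37° C with fixed cytokine, then bound to receptor overnight at 4° C. Bound cytokine detected with biotinylated anti-cytokine antibody and avidin-HRP, OD 450 nm.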

[2] = molecular target: IL-6 (Homo sapiens, UniProt P05231); experiment: Immunoassay binding test, IL-6 (gp130 receptor, IL-6Ra present); conditions: IL-6Ra 200 ng/ml
Method in brief: (§1)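 Detection used OD at 450 nm after biotinylated anti-cytokine antibody and avidin-HRP were applied to receptor-coated wells. Those wells had received, overnight at 4 °C, cytokine preincubated 2 h at 37 °C with compound at final 100 to 0.78 μM. IL-6 mixtures further contained IL-6Ra at 200 ng/ml final.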

[3] = molecular target: T1, IL-4 (Homo sapiens, UniProt P05112); experiment: Immunoassay binding test, IL-4; conditions: for IC50: IL-4 400 ng/ml, receptor 100 ng/ml, read-out: BINDING IL4 IC50
T1 sequence (P05112 25-153): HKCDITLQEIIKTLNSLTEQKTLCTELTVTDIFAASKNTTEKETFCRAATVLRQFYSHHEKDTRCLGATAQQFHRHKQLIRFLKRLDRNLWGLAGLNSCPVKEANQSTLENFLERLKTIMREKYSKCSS
Method in brief: as §1

[4] = molecular target: TNFα (Homo sapiens, UniProt P01375); experiment: Immunoassay binding test, TNFa; conditions: compounds 100 to 0.78 μM; TNFα 10 ng/ml, receptor 100 ng/ml; read-out: BINDING TNF IC50
Method in brief: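 ELISA-type binding test: receptor-coated plates blocked with 2% BSA, then cytokine (six-point dilution series) preincubated 2 h at 37 °C and bound overnight at 4 °C. Detection used biotinylated anti-cytokine antibody and avidin-HRP, read as OD at 450 nm. For IL-6, IL-6Ra was present at 200 ng/ml final.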

[5] = molecular target: TNFa/TNFRI interaction (Homo sapiens, UniProt P01375); experiment: TNFa/TNFRI interaction displacement test; format: binding; conditions: for Displacement (%): compounds at 50 μM, human TNFRI 100 ng/ml; for Displacement EC50 TNFa in presence of compound: Difference: Compound EC50 minus SPD304 EC50;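 as to Displacement EC50 TNFa in presence of compound: Difference: SPD304 reference at 20 µM final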
Method in brief: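 Plates coated overnight at 4° C with human TNFRI (100 ng/ml) and blocked with 2% BSA, then test mixtures were incubated overnight at 4° C. Bound cytokine detected with biotinylated anti-cytokine antibody (2 h, 37° C) and avidin-HRP, read as OD at 450 nm.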

Chain of TNFa/TNFRI interaction (P01375 77-233 limits assumed): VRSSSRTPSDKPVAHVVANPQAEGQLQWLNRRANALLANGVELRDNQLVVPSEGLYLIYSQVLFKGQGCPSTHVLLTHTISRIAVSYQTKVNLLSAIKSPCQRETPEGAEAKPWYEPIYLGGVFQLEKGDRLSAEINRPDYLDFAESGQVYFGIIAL
Chain of TNFα (P01375 77-233 limits assumed, species assumed): as the sequence (P01375 77-233 limits assumed) above
Chain of IL-13 (P35225 25-146, species assumed): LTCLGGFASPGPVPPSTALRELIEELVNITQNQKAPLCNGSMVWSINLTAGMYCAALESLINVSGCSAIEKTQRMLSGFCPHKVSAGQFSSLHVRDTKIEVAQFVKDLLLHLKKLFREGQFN
Chain of IL-6 (P05231 30-212, species assumed): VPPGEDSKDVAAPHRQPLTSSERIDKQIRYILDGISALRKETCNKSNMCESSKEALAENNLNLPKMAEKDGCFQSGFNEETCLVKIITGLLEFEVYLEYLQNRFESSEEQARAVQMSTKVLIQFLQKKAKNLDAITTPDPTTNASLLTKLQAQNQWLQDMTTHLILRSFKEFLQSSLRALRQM

Structure (SMILES) | BINDING IL13 % Neutra at 100 μM [1] [%] | IC50 [1] [µM] | BINDING IL6 % Neutra at 100 μM [2] [%] | BINDING IL4 % Neutra at 100 μM [3] [%] | IC50 [3] [µM] | IC50 [4] [µM] | Displacement (%) [5] [%] | Displacement EC50 TNFa in presence of compound: Difference [5] [ng/mL]
FC(F)(F)c1cccc(-n2cc(CN(CCNC3CCCCC3)Cc3ccncc3)c3ccccc32)c1 [Compound 29] | 86.8 | > 50 | 17.3 | 96.4 | 6.2 | 18.3 | 103 | 
CCn1cc(CN(CCCCN(C)C2CCCCC2)Cc2cccnc2F)c2ccccc21 [Compound 96] | 0 |  | 1 | 74.5 | 62.3 | > 50 | 26 | 
NCCCCN(Cc1cccnc1F)Cc1cn(S(=O)(=O)c2ccccc2)c2ccccc12 [Compound 63] | 55.4 | > 50 | 0 | 85.9 | 16 | 26.5 | 88 | 
O=S(=O)(c1ccccc1)n1cc(CN(Cc2cccnc2)CC2CCCN(C3CCCCC3)C2)c2ccccc21 (stereo not drawn) [Compound 3] | 96.9 |  | 5 | 96.4 | 6.6 | 4.6 | 196 | 7.4
CN(CCCN(Cc1cccnc1)Cc1cn(S(=O)(=O)c2ccccc2)c2ccccc12)C1CCCCC1 [Compound 9] | 59.7 | > 50 | 21 | 94.4 | 8 | 7.3 | 175 | 4.3
O=S(=O)(c1ccccc1)n1cc(CN(Cc2ccncc2)CC2CCCN(C3CCCCC3)C2)c2ccccc21 (stereo not drawn) [Compound 5] | 84.9 | > 50 | 2.1 | 96.9 | 7.8 | 11.1 | 194 | 8.3
Fc1ncccc1CN(Cc1cn(-c2cccc(C(F)(F)F)c2)c2ccccc12)CC1CCCN(C2CCCCC2)C1 (stereo not drawn) [Compound 42] | 86.3 | 21.3 | 0 | 94.4 | 6.4 | 15.6 | 177 | 8.3
CN1CCN(C(=O)NCCCCN(Cc2cccnc2F)Cc2cn(S(=O)(=O)c3ccccc3)c3ccccc23)CC1 [Compound 83] | 1 |  | 0 | 84.6 | > 50 | 21 | 93 | 
CCCN(CCOCCN(Cc1cccnc1F)Cc1cn(S(=O)(=O)c2ccccc2)c2ccccc12)C1CCCCC1 [Compound 97, N-(2-(2-(((2-fluoropyridin-3-yl)methyl) ((1-(phenylsulfonyl)-1H-indol-3-yl)methyl)amino)ethoxy)ethyl)-N-propylcyclohexanamine] | 73.9 | > 50 | 0 | 94.6 | 6.6 | 10.5 | 153 | 
CCN(CC)S(=O)(=O)NCCCCN(Cc1cccnc1F)Cc1cn(S(=O)(=O)c2ccccc2)c2ccccc12 [Compound 79] | 0 |  | 1 | 31.0 | > 100 | > 50 | 3 | 
O=S(=O)(c1ccccc1)n1cc(CN(CCCCNC2CCCCC2)Cc2cccnc2F)c2ccccc21 [Compound 43, N1-cyclohexyl-N4-((2-fluoropyridin-3-yl)methyl)-N4-((1-(phenylsulfonyl)-1H-indol-3-yl)methyl)butane-1,4-diamine] | 85.1 | > 50 | 0 | 93.2 | 6.7 | 8.8 | 87 | 

Stronger by IC50 [3], values ahead:

BINDING IL13 % Neutra at 100 μM [1] [%] | IC50 [1] [µM] | BINDING IL6 % Neutra at 100 μM [2] [%] | BINDING IL4 % Neutra at 100 μM [3] [%] | IC50 [3] [µM] | IC50 [4] [µM] | Displacement (%) [5] [%] | Displacement EC50 TNFa in presence of compound: Difference [5] [ng/mL] | Structure (SMILES)
88.8 | 23.9 | 0 | 89.5 | 5.6 | 8.2 | 127 |  | CN(CCCCN(Cc1cccnc1F)Cc1cn(S(=O)(=O)c2ccccc2)c2ccccc12)C1CCCCC1 [Compound 49, N1-cyclohexyl-N4-((2-fluoropyridin-3-yl)methyl)-N1-methyl-N4-((1-(phenylsulfonyl)-1H-indol-3-yl)methyl)butane-1,4-diamine]
94.6 | 23.5 | 5.5 | 97.5 | 4.1 | 11.9 | 178 | 9.1 | O=S(=O)(c1ccccc1)n1cc(CN(Cc2ccccn2)CC2CCCN(C3CCCCC3)C2)c2ccccc21 (stereo not drawn) [Compound 1]
87.7 | > 50 | 20.7 | 97.9 | 5 | 1.1 | 133 |  | CN(CCCCN(Cc1cccnc1)Cc1cn(S(=O)(=O)c2ccccc2)c2ccccc12)C1CCCCC1 [Compound 17]
96.4 | 7.4 | 20.4 | 96.3 | 4 | 19.1 | 123 |  | FC(F)(F)c1cccc(-n2cc(CN(CCCCCNC3CCCCC3)Cc3ccncc3)c3ccccc32)c1 [Compound 37]
94.8 | > 50 | 23.7 | 96 | 4.7 | 14.7 | 159 | 4.2 | CN(CCCCCN(Cc1ccncc1)Cc1cn(-c2cccc(C(F)(F)F)c2)c2ccccc12)C1CCCCC1 [Compound 39]
95 | 19.8 | −1.8 | 97.4 | 3.4 | 3.9 | 165 |  | CN(CCCCCN(Cc1cccnc1)Cc1cn(S(=O)(=O)c2ccccc2)c2ccccc12)C1CCCCC1 [Compound 36]
87.2 | 14.9 | 0 | 91.0 | 6 | 8.4 | 161 |  | O=S(=O)(c1ccccc1)n1cc(CN(CCCCNC2CCCCCC2)Cc2cccnc2F)c2ccccc21 [Compound 73, N′-cycloheptyl-N^4-((2-fluoropyridin-3-yl)methyl)-N^4-((1-(phenylsulfonyl)-1H-indol-3-yl)methyl)butane-1,4-diamine]
81.7 | > 50 | 3.3 | 98.1 | 5.3 | 12.2 | 168 | 10.9 | O=S(=O)(c1ccccc1)n1cc(CN(CCCNC2CCCCC2)Cc2ccncc2)c2ccccc21 [Compound 8]
94.2 | 8.2 | 6 | 95.5 | 4.4 | 18.8 | 28 |  | NCCCCN(Cc1cn(S(=O)(=O)c2ccccc2)c2ccccc12)Cc1cn(S(=O)(=O)c2ccccc2)c2ccccc12 [Compound 87]
91.8 | > 50 | 0 | 87.4 | 4.4 | 8.2 | 173 |  | CCCCN(CCOCCN(Cc1cccnc1F)Cc1cn(S(=O)(=O)c2ccccc2)c2ccccc12)C1CCCCC1 [Compound 99, N-butyl-N-(2-(2-(((2-fluoropyridin-3-yl)methyl)((1-(phenylsulfonyl)-1H-indol-3-yl)methyl)amino)ethoxy)ethyl)cyclohexanamine]
